Results on twelve compounds are retold here after patent US20090221643A1, “4-PHENYL-3-(2-PROPYLSULFONYLAMINO) TETRAHYDROFURAN DERIVATIVES WHICH POTENTIATE GLUTAMATE RECEPTORS AND ARE USEFUL IN THE TREATMENT OF SCHIZOPHRENIA” (priority 2006, published 2009).

In the test the target is T1, human GluR2 flip (unedited) AMPA receptor subunit (Homo sapiens, UniProt P42262).
T1 construct: expressed in transfected cells
T1 sequence (P42262 25-883 isoform P42262-2 limits assumed): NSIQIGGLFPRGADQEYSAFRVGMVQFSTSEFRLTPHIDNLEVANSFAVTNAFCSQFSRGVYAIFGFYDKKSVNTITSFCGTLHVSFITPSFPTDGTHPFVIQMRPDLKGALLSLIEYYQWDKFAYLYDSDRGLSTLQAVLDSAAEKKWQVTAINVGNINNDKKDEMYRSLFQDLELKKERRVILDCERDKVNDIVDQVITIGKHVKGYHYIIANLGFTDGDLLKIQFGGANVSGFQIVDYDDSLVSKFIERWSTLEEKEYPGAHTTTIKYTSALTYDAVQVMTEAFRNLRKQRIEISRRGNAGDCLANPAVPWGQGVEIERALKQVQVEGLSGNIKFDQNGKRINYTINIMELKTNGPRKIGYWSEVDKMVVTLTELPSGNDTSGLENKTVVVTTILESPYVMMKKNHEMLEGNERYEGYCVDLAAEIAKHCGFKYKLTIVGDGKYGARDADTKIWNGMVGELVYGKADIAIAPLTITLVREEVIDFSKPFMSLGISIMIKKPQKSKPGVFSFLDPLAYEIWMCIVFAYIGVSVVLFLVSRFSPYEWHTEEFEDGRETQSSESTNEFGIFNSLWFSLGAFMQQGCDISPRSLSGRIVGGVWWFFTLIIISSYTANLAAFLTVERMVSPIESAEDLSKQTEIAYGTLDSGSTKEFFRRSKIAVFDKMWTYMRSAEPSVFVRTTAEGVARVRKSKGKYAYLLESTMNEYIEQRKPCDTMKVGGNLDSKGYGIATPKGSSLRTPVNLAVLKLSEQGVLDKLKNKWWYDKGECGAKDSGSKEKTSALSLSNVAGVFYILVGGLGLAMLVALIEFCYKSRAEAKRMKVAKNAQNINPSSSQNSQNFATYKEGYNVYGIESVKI
The test is described as follows: Calcium influx fluorescence assay (FLUO4, FLIPR), potentiation of glutamate response. It counts as cell-based. The conditions noted are these: HEK293; HEK 293 cells expressing human GluR2 flip (unedited); fluorescence increase relative to that induced by cyclothiazide at maximum response; read-out: activity relative to cyclothiazide (at its maximal response). As for the experimental part: The ability of the compounds of the invention to potentiate glutamate receptor-mediated response may be determined a) by using fluorescent calcium-indicator dyes such as FLUO4 and additionally b) by measuring glutamate-evoked current recorded from human GluR2 flip unedited HEK293 cells.
384 well plates are prepared containing confluent monolayer of HEK 293 cells either stably expressing or transiently transfected with human GluR2 flip (unedited) AMPA receptor subunit. These cells form functional homotetrameric AMPA receptors. The tissue culture medium in the wells are discarded and the wells are each washed three times with standard buffer (80 μL) for the stable cell line (145 mM NaCl, 5 mM KCl, 1 mM MgCl2, 2 mM CaCl2, 20 mM N-[2-hydroxyethyl]-piperazine-N-[2-ethanesulfonic acid (HEPES), 5.5 mM glucose, pH 7.3) or with a Na-free buffer for the transient transfected cells (145 mM N-methyl-glucamine instead of NaCl). The plates are then incubated for 60 minutes in the dark with 2 μM FLUO4-AM dye (20 μL) (Molecular Probes, Netherlands) at room temperature to allow cell uptake of the FLUO-4AM, which is then converted to FLUO-4 by intracellular esterases which is unable to leave the cell. After incubation each well is washed three times with buffer (80 μL) (30 μL of buffer remained in each well after washing).
Compounds of the invention (or reference compounds such as cyclothiazide) are dissolved in dimethylsulfoxide (DMSO) at a stock concentration of 10 mM. These solutions are further diluted with DMSO using a Biomek FX (Beckman Coulter) in a 384 compound plate. Each dilution (1 μL) is transferred to another compound plate and buffer (50 μL) is added. An agonist stimulus (glutamate) plate is prepared by dissolving sodium glutamate in water to give a concentration of 100 mM. This solution is diluted with buffer to give a final concentration of 500 μM and dispensed into another 384-well plate (50 μL/well) using a Multidrop (Thermolabsystems).
The cell plate is then transferred into a fluorescence imaging plate based reader [such as the FLIPR384 (Molecular Devices)]. A baseline fluorescence reading is taken over a 10 to 240 second period, and then 10 μL from each plate containing a compound of the invention made up in standard buffer solution (in a concentration range from 100 μM to 10 μM) is added (to give a final concentration in the range 30 μM to 3 μM). The fluorescence is read over 5 minute period. 500 μM glutamate solution (10 μL) is added (to give a final concentration of 100 μM). The fluorescence is then read over a 4 minute period. The activities of the compounds of the invention and reference compounds are determined by measuring peak fluorescence after the last addition. The activity is also expressed relative to the fluorescence increase induced by cyclothiazide at their maximum response (i.e. greater than 30 μM).
The assay described above is believed to have an effective limit of detection of a pEC50 in the region of 3.5-4.0 due to the limitations of compound solubility. The pEC50 result is generally considered to be accurate +/−0.3.
Consider `CC(C)S(=O)(=O)N[C@@H]1COC[C@@H]1c1ccc(-c2ccc(F)nc2)cc1` (racemic) [Example 1, N-{cis-4-[4-(6-fluoro-3-pyridinyl)phenyl]tetrahydro-3-furanyl}-2-propanesulfonamide], for which the Emax was at least 50%.
On to `Cc1ccc(-c2ccc([C@H]3COC[C@H]3NS(=O)(=O)C(C)C)cc2)cn1` (racemic) [Example 2, N-{cis-4-[4-(6-methyl-3-pyridinyl)phenyl]tetrahydro-3-furanyl}-2-propanesulfonamide], for which the Emax is at least 50%.
As for `CC(C)S(=O)(=O)N[C@@H]1COC[C@@H]1c1ccc(-c2ccc(F)cn2)cc1` (racemic) [Example 3, N-{cis-4-[4-(5-fluoro-2-pyridinyl)phenyl]tetrahydro-3-furanyl}-2-propanesulfonamide], the figure is at least 50%.
Consider `CC(C)S(=O)(=O)N[C@@H]1COC[C@@H]1c1ccc(-c2cncc(F)c2)cc1` (racemic) [Example 4, N-{cis-4-[4-(5-fluoro-3-pyridinyl)phenyl]tetrahydro-3-furanyl}-2-propanesulfonamide], for which the Emax is at least 50%.
With `CC(C)S(=O)(=O)N[C@@H]1COC[C@@H]1c1ccc(-c2ccc(Cl)cn2)cc1` (racemic) [Example 5, N-{cis-4-[4-(5-chloro-2-pyridinyl)phenyl]tetrahydro-3-furanyl}-2-propanesulfonamide] the figure was at least 50%.
With `Cc1cncc(-c2ccc([C@H]3COC[C@H]3NS(=O)(=O)C(C)C)cc2)c1` (racemic) [Example 6, N-{cis-4-[4-(5-methyl-3-pyridinyl)phenyl]tetrahydro-3-furanyl}-2-propanesulfonamide] the figure was at least 50%; with `CC(C)S(=O)(=O)N[C@@H]1COC[C@@H]1c1ccc(-c2ccc(F)cc2)cc1` (racemic) [Example 7, N-[cis-4-(4′-fluoro-4-biphenylyl)tetrahydro-3-furanyl]-2-propanesulfonamide], at least 50%.
`CC(C)S(=O)(=O)N[C@@H]1COC[C@@H]1c1ccc(-c2ccc(C#N)cc2)cc1` (racemic) [Example 8, N-[cis-4-(4′-cyano-4-biphenylyl)tetrahydro-3-furanyl]-2-propanesulfonamide]: the Emax was at least 50%.
With `CC(=O)c1cccc(-c2ccc([C@H]3COC[C@H]3NS(=O)(=O)C(C)C)cc2)c1` (racemic) [Example 9, N-[cis-4-(3′-acetyl-4-biphenylyl)tetrahydro-3-furanyl]-2-propanesulfonamide] the figure was at least 50%; with `CC(C)S(=O)(=O)N[C@@H]1COC[C@@H]1c1ccc(-c2ccc3c(c2)OCO3)cc1` (racemic) [Example 10, N-{cis-4-[4-(1,3-benzodioxol-5-yl)phenyl]tetrahydro-3-furanyl}-2-propanesulfonamide], at least 50%; with `CC(C)S(=O)(=O)N[C@@H]1COC[C@@H]1c1ccc(-c2ccsc2)cc1` (racemic) [Example 11, N-{cis-4-[4-(3-thienyl)phenyl]tetrahydro-3-furanyl}-2-propanesulfonamide], at least 50%.
For `CC(C)S(=O)(=O)N[C@@H]1COC[C@@H]1c1ccc(-c2cccs2)cc1` (racemic) [Example 12, N-{cis-4-[4-(2-thienyl)phenyl]tetrahydro-3-furanyl}-2-propanesulfonamide], the Emax is at least 50%.
